Test results from US20100311585A1, “HERBICIDAL COMPOSITION AND METHOD OF USE THEREOF” (SYNGENTA CROP PROTECTION, INC., priority 2007, published 2010).

Experiments:
[1] = system: goosegrass (Eleusine indica); test: Glasshouse trial, control of goosegrass, post-emergence application; type: in vivo; set-up: key: % weed control; expected = A+B−(A×B/100) (Colby); settings: for Actual (weed control): X-77 0.1% v/v, * indicates synergy
Method: (§1) In the following tests, herbicides were applied at reduced field rates because herbicide effects are magnified in a glasshouse environment. The rates tested were selected to give between about 50 and 70% control with herbicides applied alone, so that any synergistic effect could be readily detected when testing mixtures. A glasshouse trial was carried out. Goosegrass seeds were sown into standard glasshouse potting mix (1:1 v/v Promix: Vero sand soil) contained in 10 cm square plastic pots. Treatments were replicated three times. Mesotrione (in the form Callisto® 480SE) was applied post-emergence to goosegrass (Eleusine indica) at either 100 g ai/ha or 200 g ai/ha with or without ethofumesate (in the form Prograss®). When used, ethofumesate was applied at a rate of 210 g ai/ha, 420 g ai/ha or 840 g ai/ha. The adjuvant system was X-77 at 0.1% v/v in deionised water. 200 litres of herbicide/adjuvant system was used per hectare. General weed control was evaluated at 7 and 14 days after treatment (DAT). It is noted that all herbicides were applied at reduced field rates because herbicide effects are magnified in a glasshouse environment. Rates were chosen to give a 50 to 70% level of control with herbicides applied alone as this allows for detection of any synergistic effect when tank mixtures are used. The results were evaluated using the Colby formula. The expected result for (A+B) is (A+B)−(A×B/100) where A and B are the ‘observed’ results for A and B on their own.

[2] = system: Medicago lupulina (black medic); test: Glasshouse trial, control of black medic, post-emergence application; type: in vivo; settings: ethofumesate 210 g ai/ha plus mesotrione at 100 g ai/ha
Method: as §1, with “A” for “In the following tests, herbicides were applied at reduced field rates because herbicide effects are magnified in a glasshouse environment. The rates tested were selected to give between about 50 and 70% control with herbicides applied alone, so that any synergistic effect could be readily detected when testing mixtures. A”, “own. […] A glasshouse trial was carried out as described in Example 1, except that Medicago lupulina (black medic) was used in place of goosegrass, and only one rate combination was tested.” for “own.”

[3] = ethofumesate 210 g ai/ha plus mesotrione at 200 g ai/ha
[4] = ethofumesate 420 g ai/ha plus mesotrione at 100 g ai/ha
[5] = ethofumesate 420 g ai/ha plus mesotrione at 200 g ai/ha
[6] = ethofumesate 840 g ai/ha plus mesotrione at 100 g ai/ha
[7] = ethofumesate 840 g ai/ha plus mesotrione at 200 g ai/ha

For `CCOC1Oc2ccc(OS(C)(=O)=O)cc2C1(C)C` (racemic) [Ethofumesate, (±)-2-ethoxy-2,3-dihydro-3,3-dimethylbenzofuran-5-yl methanesulfonate], the “Expected (weed control, Colby formula)” value [1, 3] was 30, the “Actual (weed control)” value [1, 3] was 45* and the “Expected (weed control, Colby formula)” value [1, 4] was 25. For the same molecule, the “Actual (weed control)” value [1, 4] was 37*, the “Expected (weed control, Colby formula)” value [1, 5] was 30 and the “Actual (weed control)” value [1, 5] was 52*. For the same molecule, the “Expected (weed control, Colby formula)” value [1, 6] was 25, the “Actual (weed control)” value [1, 6] was 55* and the “Expected (weed control, Colby formula)” value [1, 7] was 30. The “Actual (weed control)” value [1, 7] was 72*, the “Expected (weed control, Colby formula)” value [2] was 85 and the “Actual (weed control)” value ([2]; * indicates synergy) was 94*.
